The source of these data is US20120309704A1, “COMPOSITIONS FOR TREATMENT OF CHEMORESISTANT AND/OR POTENTIALLY CHEMORESISTANT LEUKAEMIAS” (priority 2009, published 2012).

The test system of experiment [1] is human leukaemic cells REH. Put plainly: In vivo model of human leukaemia: REH cells inoculated into NOD/SCID mice. The protocol: FIG. 2. Effect of corticosteroids, inhibitors of hERG1 and of the combination corticosteroids/hERG1 inhibitors in an in vivo model of human leukaemia disease (human leukaemic cells REH inoculated into NOD/SCID mice). Cells were inoculated by injection into the caudal vein and seven days after the inoculum, animals were treated with E4031, Dexamethasone, Dexamethasone+E4031 for two weeks; control mice were treated, with the same schedule, solely with saline solution. At the end of the two weeks of treatment, animals were sacrificed and the spleen and bone marrow were removed. Bone marrow engraftment was evaluated by measuring the percentage of hCD45^+ cells versus mCD45^+ cells by flow cytometry. For the evaluation of apoptosis, the Tunel assay was performed on the histological sections of the treated animals.
In FIG. 2 the effects of corticosteroids, hERG1 inhibitors and combination of corticosteroids/hERG1 inhibitors in an in vivo model of human leukaemic disease (human leukaemic cells REH inoculated in NOD / SCID mice) is shown. The cells were inoculated by injection into the tail vein and seven days after injection, the animals were treated with E4031, dexamethasone, dexamethasone+E4031 for two weeks; the control mice were treated, according to the same protocol, only with saline.
At the end of two weeks of treatment the animals were sacrificed and the spleens and bone marrows were removed. The bone marrow engraftment was assessed by measuring the percentage of hCD45+cells versus mCD45+cells by flow cytometry. The Tunel assay for evaluation of apoptosis was performer on bone marrow histological sections from the control and treated animals.

Experiment [2] deals with ALL cell lines REH, RS4, 11 and 697 and primary ALL cells. Briefly: MSC-mediated chemoresistance of ALL cell lines and primary ALL cells. Type of experiment: cell-based, human. The protocol:
FIG. 4. hERG1 activity regulates the chemoresistance induced by stromal cells in leukaemic cells a). […] The percentage of Annexin V +/ PI− cells was evaluated after 48 hours of culture.
For cell counting, after 48 hours of incubation at 37° C. and 5% di CO2, cells were recovered from the plates. We next evaluated the apoptosis. During apoptosis, a series of changes of plasma membrane occurs, one of these alterations of plasma membrane is the shift of phosphatidylserine (PS) from the inner to the outer surface of the cell. The recognition of PS by macrophage allows them to engulf the apoptotic cell, preventing the inflammatory process. The analysis of PS on the plasma membrane of apoptotic cells is performed by using annexin V-fluorescein and propidium iodide (PI) assay (Annexin-V-Fluos Staining Kit, Roche).
We then identified three cell populations: i) viable cells (annexin V-/propidium iodide-), ii) apoptotic cells (early apoptosis) (annexin V+), and iii) cells in late apoptosis or necrotic (annexin V+/propidium iodide+). All the cell lines (697, RS, REH) were cultured in the absence and in the presence of human bone marrow stromal cells (MSC) in order to reproduce as closely as possible the condition that occurs in the bone marrow.
After 48 hours of incubation, cells were separated from the stroma and processed for the analysis of apotosis.

For experiment [3], the system named is AML cell lines and primary samples. Conditions: administration of hERG1 blockers; cited from earlier work.
The subject of experiment [4] is ALL(3), ALL(4), ALL(6) cells. Briefly: Annexin V/propidium iodide apoptosis of primary ALL cells cultured in the absence or presence of MSC. Type of experiment: cell-based, human. Conditions: FIG. 1C, co-culture with stromal cells.
Protocol: The analysis is performed with the flow cytometer FACScan (Becton Dickinson). […] We next evaluated the apoptosis. […] The analysis of PS on the plasma membrane of apoptotic cells is performed by using annexin V-fluorescein and propidium iodide (PI) assay (Annexin-V-Fluos Staining Kit, Roche). The protocol of annexin requie, first, the preparation of the reaction mix, containing 20 μl of annexin and 20 μl of propidium iodide diluted in 1 ml of incubation buffer (1 ml of such mix is enough for 10 samples). About 10^6 cells are washed with PBS and centrifuged at 200 g for 5 minutes; the cell pellet is then resuspend in 100 μl of the solution previously described and incubated for 10-15 min at 15-25° C. The samples are resuspended in 500 μl of incubation buffer, before proceeding to flow cytometry analysis. […] After 48 hours of incubation, cells were separated from the stroma and processed for the analysis of apotosis.

Regarding `Cc1cccc(CCN2CCC(C(=O)c3ccc(NS(C)(=O)=O)cc3)CC2)n1.Cl.Cl` [E4031, N-[4-[[1-[2-(6-Methyl-2-pyridyl)ethyl]-4-piperidinyl]carbonyl]phenyl]metanesolfonammide dihydrochloride], the “effect on engraftment compared with dexamethasone alone” value in experiment [1] was “higher than that produced by dexamethasone alone”. Further, the “apoptosis of ALL cells in the bone marrow” value in experiment [1] (Tunel assay) is “increase”. Further, the “engraftment in the bone marrow” value in experiment [1] (treatment for two weeks starting seven days after inoculum, hCD45+ versus mCD45+ cells) is “reduced”. The MSC mediated chemoresistance result in experiment [2] is recorded as “overcome”.
Turning to `CN(CCN(C)S(=O)(=O)c1ccc(NS(C)(=O)=O)cc1)c1nc2ccccc2n1C.Cl` [Way 123,398, N-metil-N-(2-(metil(1-metil-1H-benzimidazol-2-il)amino)etil)((metilsolfonil)amino)benzensolfonammide HCl], the MSC mediated chemoresistance entry in experiment [2] is “overcome”. In addition, the cellular growth entry in experiment [3] is given as “impairs cellular growth”.
Turning to `COc1cccc2c1C(=O)c1c(O)c3c(c(O)c1C2=O)C[C@@](O)(C(=O)CO)C[C@@H]3O[C@H]1C[C@H](N)[C@H](O)[C@H](C)O1` [doxorubicin], the “responsiveness of leukaemic cells co-cultured with stromal cells compared to leukaemic cells alone” value in experiment [4] is listed as “significantly less responsive”.
With `CC[C@H]1OC(=O)[C@H](C)[C@@H](O[C@H]2C[C@@](C)(OC)[C@@H](O)[C@H](C)O2)[C@H](C)[C@@H](O[C@@H]2O[C@H](C)C[C@H](N(C)C)[C@H]2O)[C@](C)(O)C[C@@H](C)C(=O)[C@H](C)[C@@H](O)[C@]1(C)O` [erythromycin, 6-(4-dimethylamino-3-hydroxy-6-methyl-Ossan-2-yl) oxy-14-ethyl-7,12,13-triidrossi-4-(5-hydroxy-4 methoxy-4,6-dimethyl -Ossan-2-yl) oxy-3,5,7,9,11,13-esametil ossaciclotetradecan-1-2,10-dione], the MSC mediated chemoresistance result in experiment [2] was “overcome”.
On the same count and under the same terms, to `O=C1NCCN1CCN1CCC(c2cn(-c3ccc(F)cc3)c3ccc(Cl)cc23)CC1` [sertindole, 1-(2-{4-[5-chloro-1-(4-FLUORO-PHENYL)-1H-indole-3-IL]-IL-1-Piperidine}-ethyl)-imidazolidin-2-ONE, 1-[2-[4-[5-Chloro-1-(4-fluorophenyl)-1H-indole-3-a]-1-piperidinyl]ethyl]-2-Imidazolidinone] belongs “overcome”.
